Columns and labels:
PC3 (prostate) = assay: In vitro cytotoxic activity MTT assay, PC3; type: cell-based; settings: Homo sapiens, PC-3; PC3 cells, exposed for 96 hours; read-out: IC50, 50% inhibition of cell proliferation, PC3 (prostate)
Description: (§1) Compounds 1-16 were screened for their in vitro cytotoxic activity utilizing a 3-(4,5-dimethyl-thiazol-2-yl)-2,5-diphenyltetrazolium bromide (MTT) assay against selected cancer human cell lines consisting of PC3 (prostate), HCT116 (colon), A375 (melanoma), H1299 (lung), MIAPaCa-2 (pancreas), HL60 (leukemia), MCF7 (breast), MDA-MB-231 (breast) (T. Mosmann, J. Immunol. Meth., 1983, 65, 55-63). The cells were cultured at 37° C. in RMPI1640 medium supplemented with 10% fetal bovine serum, 50 IU/mL penicillin, and 50 μg/mL streptomycin in a 5% CO2 incubator. All cells were sub-cultured 3 times/week by trypsinisation. Viable cells were seeded and allowed to adhere for 12 h before a test drug was added in 96-well plates at an initial density of 1.0×10^5 cells/mL. Tumour cell lines were separately exposed to various concentrations of the tested compounds followed by incubation at a temperature of 37° C. during 96 h inside a medium of fresh RMPI 1640. Cells were subsequently incubated at 37° C. using MTT at 0.5 mg/mL during 4 h. After removal of supernatant, formazan crystals were dissolved in isopropanol and the optical density was measured at 570 nm. CX-4945 was used as a positive control.

HCT116 (colon) = assay: In vitro cytotoxic activity MTT assay, HCT116; type: cell-based; settings: Homo sapiens, HCT-116; HCT116 cells, exposed for 96 hours; read-out: IC50, 50% inhibition of cell proliferation, HCT116 (colon)
Description: as §1

A375 (melanoma) = assay: In vitro cytotoxic activity MTT assay, A375; type: cell-based; settings: Homo sapiens, A-375; A375 cells, exposed for 96 hours; read-out: IC50, 50% inhibition of cell proliferation, A375 (melanoma)
Description: as §1

H1299 (lung) = assay: In vitro cytotoxic activity MTT assay, H1299; type: cell-based; settings: Homo sapiens, NCI-H1299; H1299 cells, exposed for 96 hours; read-out: IC50, 50% inhibition of cell proliferation, H1299 (lung)
Description: as §1

MIAPaCa-2 (pancreas) = assay: In vitro cytotoxic activity MTT assay, MIAPaCa-2; type: cell-based; settings: Homo sapiens, MIA PaCa-2; MIAPaCa-2 cells, exposed for 96 hours; read-out: IC50, 50% inhibition of cell proliferation, MIAPaCa-2 (pancreas)
Description: as §1

HL60 (leukemia) = assay: In vitro cytotoxic activity MTT assay, HL60; type: cell-based; settings: Homo sapiens, HL-60; HL60 cells, exposed for 96 hours; read-out: IC50, 50% inhibition of cell proliferation, HL60 (leukemia)
Description: as §1

MCF7 (breast) = assay: In vitro cytotoxic activity MTT assay, MCF7; type: cell-based; settings: Homo sapiens; MCF7 cells, exposed for 96 hours; read-out: IC50, 50% inhibition of cell proliferation, MCF7 (breast)
Description: as §1

MDA-MB-231 (breast) = assay: In vitro cytotoxic activity MTT assay, MDA-MB-231; type: cell-based; settings: Homo sapiens; MDA-MB-231 cells, exposed for 96 hours; read-out: IC50, 50% inhibition of cell proliferation, MDA-MB-231 (breast)
Description: as §1

recombinant human CK2 = biological target: T1, recombinant human CK2 (Homo sapiens, UniProt P68400); assay: CK2 Kinase Assay (33P-ATP, filter plate); type: biochemical; settings: final ATP concentration 15 μM, 10 min at 30° C.; read-out: protein kinase CK2 IC50
T1 construct: purchased Millipore
Description: CK2 Kinase Assay was conducted using the protocol as described in Pierre F. et al; J. Med. Chem. 2011, 54, 635-654. The tested compounds in aqueous solution were added at a volume of 10 μL to a reaction mixture comprising 10 μL of assay dilution buffer (ADB; 20 mM MOPS, pH 7.2, 25 mM β-glycerol phosphate, 5 mM EGTA, 1 mM sodium orthovanadate, and 1 mM dithiothreitol), 10 μL of substrate peptide (RRRDDDSDDD, dissolved in ADB at a concentration of 1 mM), 10 μL of recombinant human CK2 (RRββ-holoenzyme, 25 ng dissolved in ADB; Millipore). Reactions were initiated by the addition of 10 μL of ATP solution (90% 75 mMMgCl2, 75 μM ATP (final ATP concentration:15 μM) dissolved in ADB; 10% [γ-33P] ATP (stock 1 mCi/100 μL; 3000 Ci/mmol (Perkin-Elmer) and maintained for 10 min at 30° C. The reactions were quenched with 100 μL of 0.75% phosphoric acid and then transferred to and filtered through a phosphor cellulose filter plate (Millipore). After washing each well five times with 0.75% phosphoric acid, the plate was dried under vacuum for 5 min and, following the addition of 15 μL of scintillation fluid to each well, the residual radioactivity was measured using a Wallac luminescence counter. The IC50 values were derived from eight concentrations of test inhibitors.

T1 sequence (P68400 whole entry): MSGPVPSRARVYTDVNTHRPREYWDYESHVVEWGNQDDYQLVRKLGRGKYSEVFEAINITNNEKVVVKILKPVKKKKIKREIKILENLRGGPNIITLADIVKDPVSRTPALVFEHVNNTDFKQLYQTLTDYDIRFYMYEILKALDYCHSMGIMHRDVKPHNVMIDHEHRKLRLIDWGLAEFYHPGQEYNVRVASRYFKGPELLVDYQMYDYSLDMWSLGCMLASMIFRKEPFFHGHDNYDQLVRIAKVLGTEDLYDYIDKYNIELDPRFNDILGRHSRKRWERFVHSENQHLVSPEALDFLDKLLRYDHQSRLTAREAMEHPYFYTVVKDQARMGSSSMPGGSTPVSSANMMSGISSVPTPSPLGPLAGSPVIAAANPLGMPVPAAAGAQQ
T1 sequence (P67870 whole entry partner): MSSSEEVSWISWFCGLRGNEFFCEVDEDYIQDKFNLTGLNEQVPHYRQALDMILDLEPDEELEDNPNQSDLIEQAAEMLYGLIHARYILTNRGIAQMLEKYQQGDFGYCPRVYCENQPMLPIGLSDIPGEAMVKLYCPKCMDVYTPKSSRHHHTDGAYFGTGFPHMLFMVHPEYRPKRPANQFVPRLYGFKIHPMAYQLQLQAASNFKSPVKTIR

IC50 (recombinant human CK2): 21 nM
SMILES: O=C(O)c1cc2nc(Nc3cccc(Cl)c3)c3ccncc3c2[nH]1 [Compound 1, 5-((3-chlorophenyl)amino)-1H-pyrrolo[3,2-c][2,6]naphthyridine-2-carboxylic acid]
IC50 (PC3 (prostate)): 2400 nM
IC50 (HCT116 (colon)): 1100 nM
IC50 (A375 (melanoma)): 2600 nM
IC50 (H1299 (lung)): 1500 nM
IC50 (MIAPaCa-2 (pancreas)): 900 nM
IC50 (HL60 (leukemia)): 2200 nM
IC50 (MCF7 (breast)): 3500 nM
IC50 (MDA-MB-231 (breast)): 3900 nM
